According to ChEMBL document CHEMBL3352179, “Inhibition of O-GlcNAcase (OGA): A Potential Therapeutic Target to Treat Alzheimer's Disease” (ACS Med Chem Lett, 2014):

Key:
[1] = biological target: T1, Protein O-GlcNAcase (Rattus norvegicus, UniProt Q8VIJ5); assay: Inhibition of OGA in rat B35 cells after 16 hrs; format: cell-based
T1 sequence (Q8VIJ5 whole entry): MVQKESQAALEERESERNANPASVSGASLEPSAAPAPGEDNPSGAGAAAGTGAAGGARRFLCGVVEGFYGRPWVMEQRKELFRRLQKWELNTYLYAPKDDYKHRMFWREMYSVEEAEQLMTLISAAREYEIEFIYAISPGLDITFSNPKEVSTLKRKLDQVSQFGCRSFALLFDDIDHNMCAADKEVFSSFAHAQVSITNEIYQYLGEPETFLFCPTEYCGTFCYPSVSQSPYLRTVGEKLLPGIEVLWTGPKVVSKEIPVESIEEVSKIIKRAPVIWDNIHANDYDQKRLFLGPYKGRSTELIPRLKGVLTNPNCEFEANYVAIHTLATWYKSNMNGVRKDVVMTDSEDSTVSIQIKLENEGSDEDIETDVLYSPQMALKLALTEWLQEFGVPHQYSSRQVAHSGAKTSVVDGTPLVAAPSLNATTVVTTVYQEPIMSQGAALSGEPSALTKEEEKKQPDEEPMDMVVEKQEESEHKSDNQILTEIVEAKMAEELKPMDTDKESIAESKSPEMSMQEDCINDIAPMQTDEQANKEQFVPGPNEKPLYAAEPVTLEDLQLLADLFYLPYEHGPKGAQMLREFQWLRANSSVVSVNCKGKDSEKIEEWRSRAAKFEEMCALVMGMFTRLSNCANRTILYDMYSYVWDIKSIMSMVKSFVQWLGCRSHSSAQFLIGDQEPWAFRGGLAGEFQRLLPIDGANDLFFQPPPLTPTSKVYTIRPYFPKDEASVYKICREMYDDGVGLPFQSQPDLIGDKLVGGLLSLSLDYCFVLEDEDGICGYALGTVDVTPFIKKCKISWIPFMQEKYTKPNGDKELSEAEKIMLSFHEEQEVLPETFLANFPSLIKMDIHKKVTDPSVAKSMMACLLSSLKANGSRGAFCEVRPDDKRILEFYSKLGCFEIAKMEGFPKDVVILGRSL

[2] = biological target: T2, Protein O-GlcNAcase (Homo sapiens, UniProt O60502); assay: Inhibition of human His-tagged OGA using fluorescein mono-beta-D-([…]) glucopyranoside as substrate after 60 mins by fluorescence assay
T2 sequence (O60502 whole entry): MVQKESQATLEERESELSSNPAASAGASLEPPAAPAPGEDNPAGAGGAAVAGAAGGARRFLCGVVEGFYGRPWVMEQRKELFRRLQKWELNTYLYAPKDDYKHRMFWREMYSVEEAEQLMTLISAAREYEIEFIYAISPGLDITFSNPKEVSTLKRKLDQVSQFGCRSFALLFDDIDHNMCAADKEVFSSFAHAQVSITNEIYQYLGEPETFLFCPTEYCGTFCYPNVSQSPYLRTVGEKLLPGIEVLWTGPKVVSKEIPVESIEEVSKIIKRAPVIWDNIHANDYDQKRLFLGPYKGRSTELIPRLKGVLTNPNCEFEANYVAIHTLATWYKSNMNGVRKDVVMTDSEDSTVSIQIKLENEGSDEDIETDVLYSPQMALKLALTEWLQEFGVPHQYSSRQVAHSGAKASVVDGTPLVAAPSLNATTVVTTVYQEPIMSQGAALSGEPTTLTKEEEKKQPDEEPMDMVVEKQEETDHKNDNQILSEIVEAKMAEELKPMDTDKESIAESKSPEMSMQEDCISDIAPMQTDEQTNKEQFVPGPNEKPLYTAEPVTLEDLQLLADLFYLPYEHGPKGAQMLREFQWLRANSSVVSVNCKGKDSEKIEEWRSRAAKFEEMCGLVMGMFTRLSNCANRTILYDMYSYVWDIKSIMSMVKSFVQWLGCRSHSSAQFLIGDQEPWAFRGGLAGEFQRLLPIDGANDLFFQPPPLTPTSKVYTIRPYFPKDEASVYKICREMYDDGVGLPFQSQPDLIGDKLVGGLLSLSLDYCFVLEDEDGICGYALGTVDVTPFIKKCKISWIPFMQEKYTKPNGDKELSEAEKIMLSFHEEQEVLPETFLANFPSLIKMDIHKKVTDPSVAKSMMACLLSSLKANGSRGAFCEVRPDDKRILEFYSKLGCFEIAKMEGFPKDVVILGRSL

SMILES: CC(=O)Nc1ncc(CN2CCC(F)(c3ccccc3)CC2)s1
- EC50 [1]: 1000 nM
- IC50 [2]: 1000 nM

SMILES: COC(=O)Nc1ncc(CN2CCC(c3ccccc3)CC2)s1
- EC50 [1]: 10000 nM
- IC50 [2]: 1000 nM

SMILES: CC(=O)Nc1ncc(CN2CCC(c3cccc(C)c3)CC2)s1
- EC50 [1]: < 200 nM
- IC50 [2]: < 200 nM

SMILES: CC(=O)Nc1ncc(CN2CCC(c3ccccc3)CC2)s1
- EC50 [1]: 200 nM
- IC50 [2]: < 200 nM
